In patent publication US20160213041A1, “NUTRITIONAL COMPOSITION HAVING LIPOPHILIC COMPOUNDS WITH IMPROVED SOLUBILITY AND BIOAVAILABILITY” (ABBOTT LABORATORIES, priority 2013, published 2016):

How the values were obtained:
[1] = Distribution of lutein and MDG over cream, aqueous and pellet layers after 100,000×g (Example 58); format: physicochemical; conditions: 100,000×g for 1 hour
Description: A study was conducted to investigate the distribution of lutein and MDG within the nutritional compositions. Sample were prepared using homogenization at 150/20 bar, and then centrifuged at 100,000×g for 1 hour. The different layers (e.g., cream, aqueous, and pellet) were then analyzed for the presence of lutein and MDG.

[2] = Centrifugation/ultrafiltration analysis of lutein and MDG in MDG batches (Example 60); format: physicochemical; conditions: centrifugation at 1,000×g, samples with NFDM
Description: A study was conducted to further investigate the distribution of lutein and MDG within the nutritional composition. Samples included MDG/lutein/water; MDG/lutein/NFDM/water; MDG/lutein/WPC/water; and MDG/water.
The premixes were provided as follows: in samples that contained lutein, lutein was heated for 2 h at 50° C. with shaking. […] In samples that contained protein, non-fat dried milk was added to water (50-60° C.) with agitation and allowed to hydrate for approximately 10 min.
The samples were prepared as follows: for solution 1, water was heated to 50-60° C., an lutein in GMO-40 blend and turrax (30 sec 10000 rpm) was added; for solution 2, NFDM was placed in water solution heated to 50-60° C., and lutein was added in GMO-40 blend and turrax (30 sec 10000 rpm); for solution 3, water was heated to 50-60° C., and GMO-40 blend and turrax (30 sec 10000 rpm) was added. The solutions are listed in the table below as X.1, wherein 1 is the solution.
Samples were formulated as detailed above, and then characterized by ultrafiltration with various membranes, as well as ultracentrifuged at various times and speed (e.g., 100,000×g, 4,500×g, and 1,000×g). The details of the different centrifugation/filtration method are listed below. […]

[3] = 33° C.; cited from earlier work

Row | Compound | lutein contained in the pellet [1] | present in the aqueous phase following centrifugation ([1]; nutritional compositions comprising MDG, of the nutritional composition) | lutein found in the aqueous phase [2] | reported solubility limit in water [3]
1 | CC1=C[C@H](O)CC(C)(C)[C@H]1/C=C/C(C)=C/C=C/C(C)=C/C=C/C=C(C)/C=C/C=C(C)/C=C/C1=C(C)C[C@@H](O)CC1(C)C [lutein] | approximately 1% | approximately 4 wt % | ~20% | –
2 | vitamin E | – | – | – | 20.9 mg/kg
